Columns and labels:
[1] = molecular target: Serine/threonine-protein kinase mTOR (Homo sapiens, UniProt P42345); experiment: Selectivity interaction (KinomeScan (DiscoverX)) EUB0000666a MTOR; details: at 10 µM
[2] = molecular target: T1, Testis-specific serine/threonine-protein kinase 2 (Homo sapiens) (UniProt Q96PF2); experiment: Selectivity interaction (Kinase panel (Invitrogen)) EUB0000639a TSSK2; details: at 200 nM
T1 sequence (whole entry): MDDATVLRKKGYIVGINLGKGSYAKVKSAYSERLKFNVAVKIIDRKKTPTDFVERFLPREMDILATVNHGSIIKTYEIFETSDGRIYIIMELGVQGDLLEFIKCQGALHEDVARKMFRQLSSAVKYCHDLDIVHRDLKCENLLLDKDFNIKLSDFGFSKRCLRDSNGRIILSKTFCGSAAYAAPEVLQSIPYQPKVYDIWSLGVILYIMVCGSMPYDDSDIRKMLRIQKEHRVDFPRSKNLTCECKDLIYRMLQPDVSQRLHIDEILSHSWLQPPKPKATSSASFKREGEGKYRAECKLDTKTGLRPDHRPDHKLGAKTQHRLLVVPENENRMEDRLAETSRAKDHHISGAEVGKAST

[3] = molecular target: Serine/threonine-protein kinase PLK2 (Homo sapiens, UniProt Q9NYY3); experiment: Selectivity interaction (Kinase panel (Invitrogen)) EUB0000639a PLK2; details: at 200 nM
[4] = molecular target: T2, Tyrosine-protein kinase JAK3 (Homo sapiens) (UniProt P52333); experiment: Selectivity interaction (Ambit KINOMEscan and KiNATiv profiling in Jurkat cells) EUB0000090b JAK3; format: cell-based; details: at 1 µM
T2 sequence (whole entry): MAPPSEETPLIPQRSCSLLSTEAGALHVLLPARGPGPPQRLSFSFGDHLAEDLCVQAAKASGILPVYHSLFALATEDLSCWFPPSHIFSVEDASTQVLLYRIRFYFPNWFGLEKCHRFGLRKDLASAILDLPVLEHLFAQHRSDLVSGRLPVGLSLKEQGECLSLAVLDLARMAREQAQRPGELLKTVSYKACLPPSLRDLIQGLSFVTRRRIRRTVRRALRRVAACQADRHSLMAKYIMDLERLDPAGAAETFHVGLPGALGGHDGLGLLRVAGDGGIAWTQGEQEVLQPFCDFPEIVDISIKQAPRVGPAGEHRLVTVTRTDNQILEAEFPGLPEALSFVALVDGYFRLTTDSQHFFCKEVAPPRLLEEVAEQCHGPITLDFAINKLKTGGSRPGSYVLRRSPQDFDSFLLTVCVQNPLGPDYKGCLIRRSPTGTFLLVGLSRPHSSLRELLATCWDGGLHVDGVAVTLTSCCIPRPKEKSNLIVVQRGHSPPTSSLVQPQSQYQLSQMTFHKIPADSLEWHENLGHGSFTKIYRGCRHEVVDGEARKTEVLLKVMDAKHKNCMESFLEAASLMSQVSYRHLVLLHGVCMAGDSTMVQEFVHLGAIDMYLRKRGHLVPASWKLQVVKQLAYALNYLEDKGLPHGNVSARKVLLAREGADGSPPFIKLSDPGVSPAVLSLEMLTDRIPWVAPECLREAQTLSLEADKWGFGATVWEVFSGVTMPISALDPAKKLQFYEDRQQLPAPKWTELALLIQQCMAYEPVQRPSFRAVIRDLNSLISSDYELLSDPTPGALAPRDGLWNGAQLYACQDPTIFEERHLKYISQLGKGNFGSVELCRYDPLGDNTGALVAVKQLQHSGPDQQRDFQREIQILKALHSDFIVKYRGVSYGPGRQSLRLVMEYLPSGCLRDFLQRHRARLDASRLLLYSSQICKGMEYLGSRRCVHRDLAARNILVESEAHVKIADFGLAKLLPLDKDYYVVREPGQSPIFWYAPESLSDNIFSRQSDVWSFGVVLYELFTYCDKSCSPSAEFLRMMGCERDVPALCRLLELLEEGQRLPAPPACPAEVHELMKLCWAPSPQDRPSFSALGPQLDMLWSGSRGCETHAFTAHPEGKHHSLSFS

[5] = test system: T3, Receptor-type tyrosine-protein kinase FLT3 (Homo sapiens), P36888 [K663Q]; experiment: Selectivity interaction (KinomeScan (DiscoverX)) EUB0000045b FLT3
T3 sequence (whole entry): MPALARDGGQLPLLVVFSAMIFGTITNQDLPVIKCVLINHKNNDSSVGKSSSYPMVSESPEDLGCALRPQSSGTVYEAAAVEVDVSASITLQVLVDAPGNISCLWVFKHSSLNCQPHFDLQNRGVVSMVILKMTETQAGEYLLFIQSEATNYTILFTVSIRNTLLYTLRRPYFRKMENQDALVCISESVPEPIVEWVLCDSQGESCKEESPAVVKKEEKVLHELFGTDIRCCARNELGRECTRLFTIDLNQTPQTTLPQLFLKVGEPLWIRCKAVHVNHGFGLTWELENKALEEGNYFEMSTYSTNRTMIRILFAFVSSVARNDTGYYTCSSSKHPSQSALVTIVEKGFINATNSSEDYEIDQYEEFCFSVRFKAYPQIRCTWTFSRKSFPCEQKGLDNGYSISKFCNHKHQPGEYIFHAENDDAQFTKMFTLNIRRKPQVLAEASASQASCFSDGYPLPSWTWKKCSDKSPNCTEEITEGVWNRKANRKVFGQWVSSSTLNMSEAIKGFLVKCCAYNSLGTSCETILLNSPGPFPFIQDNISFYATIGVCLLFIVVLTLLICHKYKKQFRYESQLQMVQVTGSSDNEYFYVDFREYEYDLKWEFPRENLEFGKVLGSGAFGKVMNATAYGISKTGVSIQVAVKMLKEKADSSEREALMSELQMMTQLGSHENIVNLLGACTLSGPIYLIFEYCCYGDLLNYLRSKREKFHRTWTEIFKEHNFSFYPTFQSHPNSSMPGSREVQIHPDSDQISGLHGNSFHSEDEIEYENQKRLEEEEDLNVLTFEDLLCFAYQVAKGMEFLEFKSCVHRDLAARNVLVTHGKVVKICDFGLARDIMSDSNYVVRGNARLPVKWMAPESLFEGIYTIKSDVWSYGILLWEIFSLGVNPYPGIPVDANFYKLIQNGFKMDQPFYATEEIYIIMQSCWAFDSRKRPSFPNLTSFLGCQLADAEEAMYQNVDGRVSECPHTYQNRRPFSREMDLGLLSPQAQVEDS

Chain of Serine/threonine-protein kinase PLK2 (Q9NYY3 whole entry, looked up): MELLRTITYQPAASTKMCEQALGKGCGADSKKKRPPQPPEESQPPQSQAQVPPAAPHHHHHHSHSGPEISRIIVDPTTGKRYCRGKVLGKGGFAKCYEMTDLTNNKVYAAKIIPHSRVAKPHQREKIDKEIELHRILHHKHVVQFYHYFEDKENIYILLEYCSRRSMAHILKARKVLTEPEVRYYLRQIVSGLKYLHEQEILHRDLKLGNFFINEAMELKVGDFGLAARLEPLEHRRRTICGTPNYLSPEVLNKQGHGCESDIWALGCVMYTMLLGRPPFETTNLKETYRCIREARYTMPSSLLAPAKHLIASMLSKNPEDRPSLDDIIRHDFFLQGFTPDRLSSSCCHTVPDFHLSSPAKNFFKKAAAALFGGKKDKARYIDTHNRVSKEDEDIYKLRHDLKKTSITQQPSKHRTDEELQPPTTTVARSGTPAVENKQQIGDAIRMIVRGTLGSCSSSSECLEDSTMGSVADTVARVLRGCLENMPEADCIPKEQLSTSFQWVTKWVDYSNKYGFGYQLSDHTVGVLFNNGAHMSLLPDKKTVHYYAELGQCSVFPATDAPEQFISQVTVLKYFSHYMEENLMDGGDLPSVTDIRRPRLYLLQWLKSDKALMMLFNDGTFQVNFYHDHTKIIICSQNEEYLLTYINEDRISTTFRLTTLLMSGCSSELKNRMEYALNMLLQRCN

SMILES: O=C(NOC[C@H](O)CO)c1ccc(F)c(F)c1Nc1ccc(I)cc1F
- % of control [1]: 100%

SMILES: CC[C@@H]1[C@H](F)C(=O)N[C@@H]1COc1nccc2cc(C(N)=O)c(OC)cc12 [ZIMLOVISERTIB]
- % of inhibition [2]: 8.34%
- % of inhibition [3]: 5.58%

SMILES: CN(C)C/C=C/C(=O)Nc1ccc(C(=O)N2CCCC(Nc3ncc(Cl)c(-c4c[nH]c5ccccc45)n3)C2)cc1 (stereo unspecified)
- % of control [4]: 100%

SMILES: C=CC(=O)Nc1cc(-n2c(=O)ccc3cnc4ccc(-c5ccc(NS(C)(=O)=O)cc5)cc4c32)ccc1C
- % of control ([5]; at 1 µM): 100%
- % of control ([5]; at 10 µM): 100%

Source: ChEMBL document CHEMBL5465560, “Selectivity Literature for EUbOPEN Chemogenomic Library” (2024)
